According to USRE50528E1, “Compounds and compositions for modulating EGFR mutant kinase activities” (Yuhan Corporation, priority 2014, dated 2025):

Columns and labels:
JAK3 = molecular target: T1, JAK3 (Homo sapiens, UniProt P52333); assay: Kinase inhibition assay, JAK3; conditions: biochemical potency;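 further: IC50 against purified truncated human JAK3 preincubated with compound, then reacted with ATP and ULight-Jak1 peptide, phosphorylation read by Europium-labeled antibody LANCE detection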
T1 construct: EGFR and JAK3 (JH1domain-catalytic) kinases, and mutant forms thereof; purchased Carna Biosciences

SYK = molecular target: T2, SYK (Homo sapiens, UniProt P43405); assay: Kinase inhibition assay, SYK; format: biochemical; conditions: for IC50: biochemical potency;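 on all read-outs here: purified full-length human SYK pre-incubated 30 min with compound, then ULight-TK peptide phosphorylation for 1 h, detected with Europium-labeled antibody in Lance buffer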
T2 construct: Purified human, full-length SYK, KDR; purchased Carna Biosciences

p-EGFR wildtype = molecular target: T3, p-EGFR wildtype (Homo sapiens, UniProt P00533); assay: Western analysis, H1299 p-EGFR wildtype; format: cell-based; conditions: for IC50: molecular potency, 4 hours, 3 nM EGF ligand; for inhibition against p-EGFR wildtype (in words): Western, FIG. 1
T3 construct: endogenous in cells; host or cells: H1299

[1] = test system: PC9 (EGFR del E746-A750 mutant); assay: Cell viability assay, PC9; format: cell-based; conditions: for Selectivity over wildtype, Wildtype vs mutant H2073/PC9 (fold): cellular potency ratio; for IC50: cellular potency, 72-hour incubation, ATPLite, read-out: EGFR Mutants PC9;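 on all read-outs here: NSCLC PC9 cells, whose viability relies on EGFR del E746-A750, exposed to serially diluted compound for 72 h at 37 °C, ATPLite read-out, IC50, H2073 as EGFR wildtype line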
p-EGFR del E746-A750 = molecular target: T4, p-EGFR del E746-A750 (Homo sapiens, UniProt P00533, DEL746-750); assay: Western analysis, PC9 p-EGFR del E746-A750; format: cell-based; conditions: for Selectivity over wildtype: p-wildtype over p-EGFR del19: H1299 vs PC9; for IC50: molecular potency, 4 hours, read-out: PC9 p-EGFR del 19 (E746-A750); for inhibition against p-EGFR del E746-A750 (in words): Western, FIG. 1
T4 construct: phosphorylation of mutant EGFR in NSCLC lines PC9; endogenous in cells; host or cells: PC9

[2] = test system: H1975 (EGFR L858R/T790M mutant); assay: Cell viability assay, H1975; format: cell-based; conditions: for IC50: Homo sapiens, NCI-H1975, cellular potency, 72-hour incubation, ATPLite, read-out: EGFR Mutants H1975; for Selectivity over wildtype, Wildtype vs mutant H2073/H1975 (fold): cellular potency ratio;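 on all read-outs here: NSCLC cells whose survival relies on EGFR L858R/T790M, exposed 72 h to serially diluted compound, ATP-based viability readout, with the H2073 line (wildtype EGFR dependent) as wildtype comparator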
EGFR mutant Del19/T790M = molecular target: T5, EGFR mutant Del19/T790M (Homo sapiens, UniProt P00533, DEL746-750/T790M); assay: Kinase inhibition assay, EGFR del E746-A750/T790M; format: biochemical; conditions: read-out: EGFR mutants Del19/T790M
T5 construct: truncated human JAK3, EGFR mutants such as del E746-A750; purchased Carna Biosciences

H2073 (EGFR wildtype) = assay: Cell viability assay, H2073; format: cell-based; conditions: for IC50: NCI-H2073, cellular potency, 72-hour incubation, ATPLite;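 on all read-outs here: NSCLC cell line whose survival relies on wildtype EGFR, treated with serially diluted compound, cytotoxic effect judged from remaining cell viability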
KDR = molecular target: T6, KDR (Homo sapiens, UniProt P35968); assay: Kinase inhibition assay, KDR; format: biochemical; conditions: for IC50: biochemical potency;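 on all read-outs here: purified full-length human KDR, 30 min preincubation with compound, then 1 h reaction with ATP and Ulight-Jak1 peptide substrate, phosphorylation read by Lance Europium antibody detection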
T6 construct: Purified human, full-length SYK, KDR; purchased Carna Biosciences

EGFR mutant L858R/T790M = molecular target: T7, EGFR mutant L858R/T790M (Homo sapiens, UniProt P00533, L858R/T790M); assay: Kinase inhibition assay, EGFR L858R/T790M; format: biochemical; conditions: read-out: EGFR mutants L858R/T790M;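 further: truncated human enzyme preincubated two hours with compound, then one hour with one millimolar ATP and ULight-PolyGT peptide, Europium-labeled antibody detection, IC50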
T7 construct: truncated human JAK3, EGFR mutants such as del E746-A750; purchased Carna Biosciences

[3] = molecular target: T8, EGFR mutant Del19 (E746-A750) (Homo sapiens, UniProt P00533, DEL746-750); assay: Kinase inhibition assay, EGFR del E746-A750; format: biochemical; conditions: read-out: EGFR mutants Del19 (E746-A750);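 further: truncated human EGFR mutant kinase, two-hour preincubation with compound, then one-hour reaction with ATP and ULight-PolyGT peptide, LANCE Europium-antibody phosphorylation readout, IC50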
T8 construct: truncated human JAK3, EGFR mutants such as del E746-A750; purchased Carna Biosciences

EGFR mutant L858R = molecular target: T9, EGFR mutant L858R (Homo sapiens, UniProt P00533, L858R); assay: Kinase inhibition assay, EGFR L858R; format: biochemical; conditions: read-out: EGFR mutants L858R;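 further: truncated human EGFR L858R kinase with compound preincubation, ULight-PolyGT peptide phosphorylation read by Europium-antibody Lance detection, IC50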
T9 construct: truncated human JAK3, EGFR mutants such as del E746-A750; purchased Carna Biosciences

p-EGFR L858R/T790M = molecular target: T10, p-EGFR L858R/T790M (Homo sapiens, UniProt P00533, L858R/T790M); assay: Western analysis, H1975 p-EGFR L858R/T790M; format: cell-based; conditions: for Selectivity over wildtype: p-wildtype over p-EGFR L858R, T790M: H1299 vs H1975; for IC50: molecular potency, 4 hours; for inhibition against p-EGFR L858R/T790M (in words): Western, FIG. 1
T10 construct: phosphorylation of mutant EGFR in NSCLC lines H1975; endogenous in cells; host or cells: H1975

EGFR mutant T790M = molecular target: T11, EGFR mutant T790M (Homo sapiens, UniProt P00533, T790M); assay: Kinase inhibition assay, EGFR mutant T790M; conditions: biochemical potency;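 further: truncated human EGFR mutant enzyme preincubated two hours with compound, then ATP plus ULight-PolyGT peptide for one hour, Europium-labeled antibody LANCE detection, IC50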
T11 construct: truncated human JAK3, EGFR mutants such as del E746-A750; purchased Carna Biosciences

[4] = approximate ATP Km concentration

T3 sequence (P00533 25-1210): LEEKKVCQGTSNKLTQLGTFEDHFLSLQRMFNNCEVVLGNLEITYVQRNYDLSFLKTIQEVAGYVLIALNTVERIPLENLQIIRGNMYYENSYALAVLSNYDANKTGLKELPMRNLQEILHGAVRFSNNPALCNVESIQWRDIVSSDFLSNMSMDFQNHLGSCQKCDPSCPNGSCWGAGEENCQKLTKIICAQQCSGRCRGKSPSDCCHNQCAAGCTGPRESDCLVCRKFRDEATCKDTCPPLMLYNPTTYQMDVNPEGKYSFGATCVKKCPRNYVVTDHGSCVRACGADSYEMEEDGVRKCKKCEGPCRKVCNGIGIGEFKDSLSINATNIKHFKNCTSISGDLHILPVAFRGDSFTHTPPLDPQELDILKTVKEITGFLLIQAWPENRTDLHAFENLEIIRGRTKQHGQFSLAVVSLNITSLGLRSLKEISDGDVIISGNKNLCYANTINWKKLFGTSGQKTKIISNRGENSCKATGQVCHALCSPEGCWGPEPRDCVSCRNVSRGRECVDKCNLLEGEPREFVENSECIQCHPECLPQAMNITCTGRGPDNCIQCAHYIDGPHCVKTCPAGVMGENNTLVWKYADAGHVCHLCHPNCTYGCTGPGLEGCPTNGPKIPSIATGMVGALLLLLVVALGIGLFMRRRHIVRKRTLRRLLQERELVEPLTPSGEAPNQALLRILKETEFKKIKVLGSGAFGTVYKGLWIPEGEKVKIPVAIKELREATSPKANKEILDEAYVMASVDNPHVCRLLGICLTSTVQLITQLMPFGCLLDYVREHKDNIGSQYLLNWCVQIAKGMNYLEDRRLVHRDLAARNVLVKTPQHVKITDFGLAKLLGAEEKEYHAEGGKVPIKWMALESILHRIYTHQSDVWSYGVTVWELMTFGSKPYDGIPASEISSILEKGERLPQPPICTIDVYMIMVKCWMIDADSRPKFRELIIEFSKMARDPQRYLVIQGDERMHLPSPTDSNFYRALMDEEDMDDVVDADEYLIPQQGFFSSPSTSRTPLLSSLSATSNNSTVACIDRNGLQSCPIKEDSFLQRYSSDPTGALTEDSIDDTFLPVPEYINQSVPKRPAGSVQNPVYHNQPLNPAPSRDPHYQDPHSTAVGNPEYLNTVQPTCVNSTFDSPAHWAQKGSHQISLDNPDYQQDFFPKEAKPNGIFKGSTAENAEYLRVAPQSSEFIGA
T6 sequence (P35968 20-1356): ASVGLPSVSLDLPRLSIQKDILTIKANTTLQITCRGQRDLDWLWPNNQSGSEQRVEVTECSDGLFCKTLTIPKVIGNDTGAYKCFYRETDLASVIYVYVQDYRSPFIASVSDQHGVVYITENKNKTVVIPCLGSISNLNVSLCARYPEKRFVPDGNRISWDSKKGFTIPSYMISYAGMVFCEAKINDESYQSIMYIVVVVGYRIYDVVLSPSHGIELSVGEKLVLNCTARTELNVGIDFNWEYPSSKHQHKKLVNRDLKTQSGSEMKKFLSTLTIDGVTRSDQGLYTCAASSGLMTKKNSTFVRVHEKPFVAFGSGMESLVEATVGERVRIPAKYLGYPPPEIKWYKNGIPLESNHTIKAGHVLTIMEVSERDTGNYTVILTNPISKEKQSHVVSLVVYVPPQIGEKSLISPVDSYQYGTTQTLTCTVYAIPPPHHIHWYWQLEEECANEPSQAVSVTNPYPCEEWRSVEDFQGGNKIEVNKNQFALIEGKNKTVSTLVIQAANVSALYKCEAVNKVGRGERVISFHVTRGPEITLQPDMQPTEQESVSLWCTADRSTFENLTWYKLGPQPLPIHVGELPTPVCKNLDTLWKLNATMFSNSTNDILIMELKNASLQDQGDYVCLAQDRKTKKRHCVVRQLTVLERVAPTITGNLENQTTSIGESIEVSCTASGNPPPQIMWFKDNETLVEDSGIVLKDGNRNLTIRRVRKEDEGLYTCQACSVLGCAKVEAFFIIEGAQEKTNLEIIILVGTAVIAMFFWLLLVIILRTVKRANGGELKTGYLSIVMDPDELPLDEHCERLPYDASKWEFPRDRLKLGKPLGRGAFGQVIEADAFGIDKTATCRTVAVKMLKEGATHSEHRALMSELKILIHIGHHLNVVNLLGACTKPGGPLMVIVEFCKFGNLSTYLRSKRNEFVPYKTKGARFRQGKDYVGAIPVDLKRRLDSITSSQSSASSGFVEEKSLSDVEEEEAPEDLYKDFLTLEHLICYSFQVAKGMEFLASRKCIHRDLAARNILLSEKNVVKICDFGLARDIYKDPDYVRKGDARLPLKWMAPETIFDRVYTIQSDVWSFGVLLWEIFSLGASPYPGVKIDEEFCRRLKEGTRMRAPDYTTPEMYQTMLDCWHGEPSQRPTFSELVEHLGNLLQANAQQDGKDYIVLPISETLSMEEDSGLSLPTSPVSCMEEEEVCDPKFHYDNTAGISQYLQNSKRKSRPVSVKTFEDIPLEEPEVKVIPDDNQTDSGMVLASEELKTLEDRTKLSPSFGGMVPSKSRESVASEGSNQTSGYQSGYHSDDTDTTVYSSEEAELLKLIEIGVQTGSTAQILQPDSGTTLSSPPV
T4 sequence (P00533 with tags, fused parts or gaps DEL746-750): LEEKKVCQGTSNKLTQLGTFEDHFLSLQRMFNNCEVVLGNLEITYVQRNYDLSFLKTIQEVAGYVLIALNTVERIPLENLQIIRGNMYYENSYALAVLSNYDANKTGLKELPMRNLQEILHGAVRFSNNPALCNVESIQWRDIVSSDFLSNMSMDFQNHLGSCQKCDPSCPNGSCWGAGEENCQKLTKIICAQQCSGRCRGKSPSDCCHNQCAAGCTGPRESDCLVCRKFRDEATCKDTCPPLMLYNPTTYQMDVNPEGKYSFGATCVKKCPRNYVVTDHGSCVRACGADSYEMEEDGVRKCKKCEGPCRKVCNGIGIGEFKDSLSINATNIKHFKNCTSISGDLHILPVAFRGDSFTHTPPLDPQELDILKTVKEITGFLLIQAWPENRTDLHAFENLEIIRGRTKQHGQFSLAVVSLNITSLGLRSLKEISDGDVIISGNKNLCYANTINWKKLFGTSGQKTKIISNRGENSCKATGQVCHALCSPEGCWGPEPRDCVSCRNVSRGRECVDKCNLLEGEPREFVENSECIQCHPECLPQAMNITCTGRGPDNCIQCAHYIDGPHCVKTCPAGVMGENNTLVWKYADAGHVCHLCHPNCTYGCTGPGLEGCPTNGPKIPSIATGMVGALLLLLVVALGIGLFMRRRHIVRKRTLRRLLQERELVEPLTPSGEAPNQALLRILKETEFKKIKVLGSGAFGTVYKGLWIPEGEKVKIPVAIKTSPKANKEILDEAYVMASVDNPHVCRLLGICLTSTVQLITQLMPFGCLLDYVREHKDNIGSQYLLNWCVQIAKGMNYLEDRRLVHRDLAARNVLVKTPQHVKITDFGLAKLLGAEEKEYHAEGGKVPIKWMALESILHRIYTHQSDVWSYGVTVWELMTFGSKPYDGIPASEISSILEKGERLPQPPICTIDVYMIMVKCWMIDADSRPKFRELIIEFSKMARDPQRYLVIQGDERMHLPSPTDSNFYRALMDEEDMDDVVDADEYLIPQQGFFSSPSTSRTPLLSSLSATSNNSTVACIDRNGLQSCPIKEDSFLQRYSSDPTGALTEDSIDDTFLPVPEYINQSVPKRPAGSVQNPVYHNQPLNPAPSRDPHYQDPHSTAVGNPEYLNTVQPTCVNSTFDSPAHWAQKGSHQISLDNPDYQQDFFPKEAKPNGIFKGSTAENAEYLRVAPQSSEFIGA
T7 sequence (P00533 669-1210 T790M/L858R limits assumed): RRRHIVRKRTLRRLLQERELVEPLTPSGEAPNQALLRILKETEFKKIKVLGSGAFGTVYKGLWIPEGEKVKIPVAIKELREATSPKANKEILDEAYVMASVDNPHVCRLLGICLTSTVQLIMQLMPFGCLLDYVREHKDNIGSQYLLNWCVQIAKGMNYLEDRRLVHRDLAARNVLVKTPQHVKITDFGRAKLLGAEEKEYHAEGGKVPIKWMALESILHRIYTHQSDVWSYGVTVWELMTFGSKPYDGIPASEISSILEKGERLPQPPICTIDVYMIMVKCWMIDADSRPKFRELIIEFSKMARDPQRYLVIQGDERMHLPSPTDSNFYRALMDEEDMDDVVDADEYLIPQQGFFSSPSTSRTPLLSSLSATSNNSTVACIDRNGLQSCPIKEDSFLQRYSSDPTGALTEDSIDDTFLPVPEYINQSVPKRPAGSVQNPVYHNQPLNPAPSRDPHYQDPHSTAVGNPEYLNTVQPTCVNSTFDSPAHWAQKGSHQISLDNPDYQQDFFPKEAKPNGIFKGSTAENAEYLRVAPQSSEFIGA
T11 sequence (P00533 669-1210 T790M limits assumed): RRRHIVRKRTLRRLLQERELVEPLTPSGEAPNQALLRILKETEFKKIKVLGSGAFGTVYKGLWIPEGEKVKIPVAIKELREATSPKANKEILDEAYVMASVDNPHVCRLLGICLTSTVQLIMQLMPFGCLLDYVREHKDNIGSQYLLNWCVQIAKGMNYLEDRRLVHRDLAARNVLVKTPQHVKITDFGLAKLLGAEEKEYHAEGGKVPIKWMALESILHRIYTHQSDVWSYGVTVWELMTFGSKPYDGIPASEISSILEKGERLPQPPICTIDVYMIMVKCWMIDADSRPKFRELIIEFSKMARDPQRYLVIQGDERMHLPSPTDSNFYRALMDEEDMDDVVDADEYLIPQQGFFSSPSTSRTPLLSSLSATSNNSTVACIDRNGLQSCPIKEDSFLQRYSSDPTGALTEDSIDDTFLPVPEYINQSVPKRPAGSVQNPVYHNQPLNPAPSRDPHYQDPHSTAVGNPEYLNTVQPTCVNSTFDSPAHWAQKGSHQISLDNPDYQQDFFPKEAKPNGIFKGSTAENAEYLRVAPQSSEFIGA
T1 sequence (P52333 822-1111 limits assumed): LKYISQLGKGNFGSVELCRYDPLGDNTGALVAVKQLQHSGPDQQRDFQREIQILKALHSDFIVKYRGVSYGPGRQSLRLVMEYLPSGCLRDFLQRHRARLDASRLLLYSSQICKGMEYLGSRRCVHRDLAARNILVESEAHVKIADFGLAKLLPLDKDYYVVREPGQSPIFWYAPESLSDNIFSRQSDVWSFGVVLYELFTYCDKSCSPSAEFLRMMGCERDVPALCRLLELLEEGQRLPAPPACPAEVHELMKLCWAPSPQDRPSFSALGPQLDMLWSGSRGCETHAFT

IC50 (JAK3) [nM]	IC50 (SYK) [nM]	IC50 (p-EGFR wildtype) [nM]	IC50 [1] [nM]	Selectivity over wildtype: p-wildtype over p-EGFR del19 (p-EGFR del E746-A750)	IC50 (p-EGFR del E746-A750) [nM]	IC50 [2] [nM]	IC50 (EGFR mutant Del19/T790M) [nM]	IC50 (H2073 (EGFR wildtype)) [nM]	IC50 (KDR) [nM]	IC50 (EGFR mutant L858R/T790M) [nM]	IC50 [3] [nM]	IC50 (EGFR mutant L858R) [nM]	Selectivity over wildtype: p-wildtype over p-EGFR L858R, T790M (p-EGFR L858R/T790M)	IC50 (p-EGFR L858R/T790M) [nM]	IC50 (EGFR mutant T790M) [nM]	Structure (SMILES)	Selectivity over wildtype, Wildtype vs mutant H2073/PC9 (fold) [1]	Selectivity over wildtype, Wildtype vs mutant H2073/H1975 (fold) [2]	further results
< 20	201 to 1000	> 1000	< 20	>200 fold	< 20	20 to 200	< 20	> 1000	> 1000	< 20	< 20	< 20	20-100 fold	< 20	< 20	C=CC(=O)Nc1cc(Nc2nccc(-n3cc(CN4CCC4)c(C)n3)n2)c(OC)cc1N1CCOCC1 [Compound 14, N-(5-(4-(4-(azetidin-1-ylmethyl)-3-methyl-1H-pyrazol-1-yl)pyrimidin-2-ylamino)-4-methoxy-2-morpholinophenyl)acrylamide]	>200 fold	20-100 fold	–
< 20	201 to 1000	> 1000	20 to 200	>200 fold	< 20	20 to 200	< 20	> 1000	> 1000	< 20	< 20	< 20	>200 fold	< 20	< 20	C=CC(=O)Nc1cc(Nc2ncc(C)c(-n3cc(CN4C[C@H](O)[C@H](OC)C4)c(C)n3)n2)c(OC)cc1N1CCOCC1 [Compound 26, N-(5-(4-(4-(((3S,4R)-3-hydroxy-4-methoxypyrrolidin-1-yl)methyl)-3-methyl-1H-pyrazol-1-yl)-5-methylpyrimidin-2-ylamino)-4-methoxy-2-morpholinophenyl)acrylamide]	20-100 fold	101-200 fold	inhibition against p-EGFR wildtype (in words) (p-EGFR wildtype): not p-EGFR wildtype; Selectivity over wildtype: p-wildtype over p-EGFR del19 (p-EGFR del E746-A750; listed as compound 26): 572.4 fold; inhibition against p-EGFR del E746-A750 (in words) (p-EGFR del E746-A750): potent inhibition; Selectivity over wildtype: p-wildtype over p-EGFR L858R, T790M (p-EGFR L858R/T790M; listed as compound 26): 1440.3 fold; inhibition against p-EGFR L858R/T790M (in words) (p-EGFR L858R/T790M): potent inhibition
< 20	201 to 1000	201 to 1000	< 20	20-100 fold	< 20	< 20	< 20	> 1000	> 1000	< 20	< 20	< 20	20-100 fold	< 20	< 20	C=CC(=O)Nc1cc(Nc2nccc(-n3cc(CN(C)C)c(-c4ccccc4)n3)n2)c(OC)cc1N1CCOCC1 [Compound 73, N-(5-(4-(4-((dimethylamino)methyl)-3-phenyl-1H-pyrazol-1-yl)pyrimidin-2-ylamino)-4-methoxy-2-morpholinophenyl)acrylamide]	>200 fold	>200 fold	inhibition of the kinase activity of SYK (in words) (SYK; [4]): poorly inhibit; inhibition against p-EGFR wildtype (in words) (p-EGFR wildtype): not p-EGFR wildtype; inhibition in PC9 cell (in words) ([1]; cell viability): potent inhibition; Selectivity over wildtype, Wildtype vs mutant H2073/PC9 (fold) ([1]; listed as compound 73): > 200 fold; inhibition against p-EGFR del E746-A750 (in words) (p-EGFR del E746-A750): potent inhibition; inhibition in H1975 cell (in words) ([2]; cell viability): potent inhibition; Selectivity over wildtype, Wildtype vs mutant H2073/H1975 (fold) ([2]; listed as compound 73): > 200 fold; inhibition in H2073 cell (in words) (H2073 (EGFR wildtype); cell viability): not in H2073; inhibition of the kinase activity of KDR (in words) (KDR; [4]): poorly inhibit; inhibition against p-EGFR L858R/T790M (in words) (p-EGFR L858R/T790M): potent inhibition
< 20	20 to 200	201 to 1000	< 20	101-200 fold	< 20	< 20	< 20	> 1000	> 1000	< 20	< 20	< 20	20-100 fold	< 20	< 20	C=CC(=O)Nc1cc(Nc2nccc(-n3cc(CN(C)C)c(C4CC4)n3)n2)c(OC)cc1N1CCOCC1 [Compound 74, N-(5-(4-(3-cyclopropyl-4-((dimethylamino)methyl)-1H-pyrazol-1-yl)pyrimidin-2-ylamino)-4-methoxy-2-morpholinophenyl)acrylamide]	>200 fold	>200 fold	–

Further lines, the compound ahead of its results:

Structure (SMILES)	IC50 (JAK3) [nM]	IC50 (SYK) [nM]	IC50 (p-EGFR wildtype) [nM]	IC50 [1] [nM]	Selectivity over wildtype: p-wildtype over p-EGFR del19 (p-EGFR del E746-A750)	IC50 (p-EGFR del E746-A750) [nM]	IC50 [2] [nM]	IC50 (EGFR mutant Del19/T790M) [nM]	IC50 (H2073 (EGFR wildtype)) [nM]	IC50 (KDR) [nM]	IC50 (EGFR mutant L858R/T790M) [nM]	IC50 [3] [nM]	IC50 (EGFR mutant L858R) [nM]	Selectivity over wildtype: p-wildtype over p-EGFR L858R, T790M (p-EGFR L858R/T790M)	IC50 (p-EGFR L858R/T790M) [nM]	IC50 (EGFR mutant T790M) [nM]	Selectivity over wildtype, Wildtype vs mutant H2073/PC9 (fold) [1]	Selectivity over wildtype, Wildtype vs mutant H2073/H1975 (fold) [2]	further results
C=CC(=O)Nc1cc(Nc2nccc(-n3cc(CN(C)C)c(C)n3)n2)c(OC)cc1N1CCOCC1 [Compound 46, N-(5-(4-(4-((dimethylamino)methyl)-3-methyl-1H-pyrazol-1-yl)pyrimidin-2-ylamino)-4-methoxy-2-morpholinophenyl)acrylamide]	< 20	201 to 1000	20 to 200	< 20	20-100 fold	< 20	20 to 200	< 20	> 1000	> 1000	< 20	< 20	< 20	20-100 fold	< 20	< 20	>200 fold	101-200 fold	–
C=CC(=O)Nc1cc(Nc2nccc(-n3cc(CN(C)C)c(C)n3)n2)c(OC)cc1N1CCN(CCF)CC1 [Compound 79, N-(5-(4-(4-((dimethylamino)methyl)-3-methyl-1H-pyrazol-1-yl)pyrimidin-2-ylamino)-2-(4-(2-fluoroethyl)piperazin-1-yl)-4-methoxyphenyl)acrylamide]	< 20	201 to 1000	–	20 to 200	–	–	20 to 200	< 20	> 1000	> 1000	< 20	< 20	< 20	–	–	< 20	101-200 fold	101-200 fold	–
C=CC(=O)Nc1cc(Nc2ncc(C)c(-n3cc(CN4CCC4)c(C4CC4)n3)n2)c(OC)cc1N1CCOCC1 [Compound 123, N-(5-(4-(4-(azetidin-1-ylmethyl)-3-cyclopropyl-1H-pyrazol-1-yl)-5-methylpyrimidin-2-ylamino)-4-methoxy-2-morpholinophenyl)acrylamide]	< 20	201 to 1000	–	< 20	–	–	< 20	< 20	> 1000	> 1000	< 20	< 20	< 20	–	–	< 20	>200 fold	>200 fold	–
C=CC(=O)Nc1cc(Nc2ncc(C)c(-n3cc(CN(C)C)c(C(C)C)n3)n2)c(OC)cc1N1CCOCC1 [Compound 124, N-(5-(4-(4-((dimethylamino)methyl)-3-isopropyl-1H-pyrazol-1-yl)-5-methylpyrimidin-2-ylamino)-4-methoxy-2-morpholinophenyl)acrylamide]	< 20	20 to 200	–	< 20	–	–	< 20	< 20	> 1000	> 1000	< 20	< 20	< 20	–	–	< 20	>200 fold	>200 fold	–
